Paper PMC8699473, “An Easily Expandable Multi-Drug LC-MS Assay for the Simultaneous Quantification of 57 Oral Antitumor Drugs in Human Plasma” (Cancers, 2021)

Experiment: Long-term stability in spiked pooled human plasma

| SMILES | Long-term stability, 1 month, -80°C Accuracy [%] (validation standard 2xLLOV) | Long-term stability, 2 month, -20°C Accuracy [%] (validation standard 2xLLOV) | Long-term stability, 2 month, -80°C Accuracy [%] (validation standard 2xLLOV) | Long-term stability, 3 month, -80°C Accuracy [%] (validation standard 2xLLOV) | Long-term stability, 6 weeks, 4°C, without daylight Accuracy [%] (validation standard 2xLLOV) | Long-term stability, 1 month, -20°C Accuracy [%] (validation standard LLOV) | Long-term stability, 1 month, -80°C Accuracy [%] (validation standard LLOV) | Long-term stability, 2 month, -20°C Accuracy [%] (validation standard LLOV) | Long-term stability, 2 month, -80°C Accuracy [%] (validation standard LLOV) | Long-term stability, 1 month, -80°C Accuracy [%] (validation standard MOV) | Long-term stability, 2 month, -20°C Accuracy [%] (validation standard MOV) | Long-term stability, 2 month, -80°C Accuracy [%] (validation standard MOV) | Long-term stability, 3 month, -80°C Accuracy [%] (validation standard MOV) | Long-term stability, 6 weeks, 4°C, without daylight Accuracy [%] (validation standard MOV) | Long-term stability, 1 month, -20°C Accuracy [%] (validation standard ULOV) | Long-term stability, 1 month, -80°C Accuracy [%] (validation standard ULOV) | Long-term stability, 2 month, -20°C Accuracy [%] (validation standard ULOV) | Long-term stability, 2 month, -80°C Accuracy [%] (validation standard ULOV) | Long-term stability, 3 month, -80°C Accuracy [%] (validation standard ULOV) | Long-term stability, 6 weeks, 4°C, without daylight Accuracy [%] (validation standard ULOV) | further results |
| --- | --- | --- | --- | --- | --- | --- | --- | --- | --- | --- | --- | --- | --- | --- | --- | --- | --- | --- | --- | --- | --- |
| CN(C)C(=O)c1cc2cnc(Nc3ccc(N4CCNCC4)cn3)nc2n1C1CCCC1 [Ribociclib] | 98.5 | 109.0 | 112.4 | 106.4 | 96.4 | 88.0 | 83.5 | 92.7 | 94.7 | 101.3 | 108.6 | 108.1 | 104.3 | 107.4 | 91.9 | 90.7 | 98.7 | 98.8 | 92.7 | 96.3 | Long-term stability, 3 month, -80°C Accuracy [%] (validation standard LLOV): 90.7%; Long-term stability, 6 weeks, 4°C, without daylight Accuracy [%] (validation standard LLOV): 76.6% |
| Cc1ccc(C(=O)Nc2ccc(CN3CCN(C)CC3)c(C(F)(F)F)c2)cc1C#Cc1cnc2cccnn12 [Ponatinib] | 94.7 | 95.8 | 97.8 | 98.9 | 91.7 |  |  |  |  | 93.7 | 99.2 | 101.1 | 95.3 | 97.9 | 95.0 | 90.8 | 97.0 | 100.1 | 93.5 | 89.4 | Long-term stability, 1 month, -20°C Accuracy [%] (validation standard 2xLLOV): 99.2%; Long-term stability, 3 month, -20°C Accuracy [%] (validation standard 2xLLOV): 93.4%; Long-term stability, 1 month, -20°C Accuracy [%] (validation standard MOV): 92.3%; Long-term stability, 3 month, -20°C Accuracy [%] (validation standard MOV): 95.0%; Long-term stability, 3 month, -20°C Accuracy [%] (validation standard ULOV): 93.8% |
| COc1cc2nccc(Oc3ccc(NC(=O)Nc4cc(C)on4)c(Cl)c3)c2cc1OC [Tivozanib] | 95.7 | 98.9 | 101.4 | 95.2 | 93.9 | 99.8 | 96.0 | 95.8 | 100.7 | 95.0 | 102.0 | 101.3 | 98.0 | 107.6 | 97.0 | 92.8 | 100.9 | 100.3 | 96.2 | 100.6 | Long-term stability, 1 month, -20°C Accuracy [%] (validation standard 2xLLOV): 101.4%; Long-term stability, 3 month, -20°C Accuracy [%] (validation standard 2xLLOV): 96.9%; Long-term stability, 3 month, -20°C Accuracy [%] (validation standard LLOV): 92.5%; Long-term stability, 3 month, -80°C Accuracy [%] (validation standard LLOV): 97.1%; Long-term stability, 6 weeks, 4°C, without daylight Accuracy [%] (validation standard LLOV): 86.9%; Long-term stability, 1 month, -20°C Accuracy [%] (validation standard MOV): 97.4%; Long-term stability, 3 month, -20°C Accuracy [%] (validation standard MOV): 100.0%; Long-term stability, 3 month, -20°C Accuracy [%] (validation standard ULOV): 96.3% |
| O=C(c1cc(Cc2n[nH]c(=O)c3ccccc23)ccc1F)N1CCN(C(=O)C2CC2)CC1 [Olaparib] | 98.2 | 103.8 | 103.3 | 103.3 | 96.6 | 112.8 | 110.5 | 115.9 | 115.8 | 92.9 | 97.5 | 96.8 | 96.7 | 107.5 | 99.1 | 98.1 | 102.1 | 101.1 | 100.7 | 105.6 | Long-term stability, 1 month, -20°C Accuracy [%] (validation standard 2xLLOV): 100.3%; Long-term stability, 3 month, -20°C Accuracy [%] (validation standard 2xLLOV): 99.8%; Long-term stability, 3 month, -20°C Accuracy [%] (validation standard LLOV): 111.4%; Long-term stability, 3 month, -80°C Accuracy [%] (validation standard LLOV): 115.4%; Long-term stability, 6 weeks, 4°C, without daylight Accuracy [%] (validation standard LLOV): 105.6%; Long-term stability, 1 month, -20°C Accuracy [%] (validation standard MOV): 95.3%; Long-term stability, 3 month, -20°C Accuracy [%] (validation standard MOV): 97.6%; Long-term stability, 3 month, -20°C Accuracy [%] (validation standard ULOV): 98.9% |
| C[C@H]1Oc2cc(cnc2N)-c2c(nn(C)c2C#N)CN(C)C(=O)c2ccc(F)cc21 [Lorlatinib] | 84.9 | 91.9 | 91.9 | 90.8 | 96.7 | 87.9 | 82.6 | 90.0 | 87.6 | 87.8 | 93.9 | 91.2 | 89.2 | 93.7 | 90.6 | 87.4 | 91.4 | 91.7 | 89.2 | 91.4 | Long-term stability, 1 month, -20°C Accuracy [%] (validation standard 2xLLOV): 89.2%; Long-term stability, 3 month, -20°C Accuracy [%] (validation standard 2xLLOV): 91.7%; Long-term stability, 3 month, -20°C Accuracy [%] (validation standard LLOV): 95.7%; Long-term stability, 3 month, -80°C Accuracy [%] (validation standard LLOV): 93.2%; Long-term stability, 6 weeks, 4°C, without daylight Accuracy [%] (validation standard LLOV): 97.1%; Long-term stability, 1 month, -20°C Accuracy [%] (validation standard MOV): 88.5%; Long-term stability, 3 month, -20°C Accuracy [%] (validation standard MOV): 90.9%; Long-term stability, 3 month, -20°C Accuracy [%] (validation standard ULOV): 91.0% |
| CC1(C)CCC(CN2CCN(c3ccc(C(=O)NS(=O)(=O)c4ccc(NCC5CCOCC5)c([N+](=O)[O-])c4)c(Oc4cnc5[nH]ccc5c4)c3)CC2)=C(c2ccc(Cl)cc2)C1 [Venetoclax] | 104.0 | 104.9 | 111.9 | 101.9 | 99.8 | 111.0 | 109.1 | 105.5 | 115.7 | 103.6 | 109.3 | 110.0 | 99.6 | 99.5 | 108.0 | 102.7 | 112.4 | 114.0 | 102.2 | 95.2 | Long-term stability, 1 month, -20°C Accuracy [%] (validation standard 2xLLOV): 102.9%; Long-term stability, 3 month, -20°C Accuracy [%] (validation standard 2xLLOV): 85.1%; Long-term stability, 3 month, -20°C Accuracy [%] (validation standard LLOV): 101.9%; Long-term stability, 3 month, -80°C Accuracy [%] (validation standard LLOV): 99.3%; Long-term stability, 6 weeks, 4°C, without daylight Accuracy [%] (validation standard LLOV): 92.7%; Long-term stability, 1 month, -20°C Accuracy [%] (validation standard MOV): 99.9%; Long-term stability, 3 month, -20°C Accuracy [%] (validation standard MOV): 100.0%; Long-term stability, 3 month, -20°C Accuracy [%] (validation standard ULOV): 92.9% |
| CNC(=O)c1cc(Oc2ccc(NC(=O)Nc3ccc(Cl)c(C(F)(F)F)c3)cc2)ccn1 [Sorafenib] | 110.1 | 109.9 | 106.2 | 108.7 | 74.5 | 106.1 | 102.7 | 109.0 | 106.5 | 108.3 | 112.2 | 118.4 | 100.4 | 106.5 | 104.5 | 103.5 | 116.0 | 114.3 | 102.3 | 99.7 | Long-term stability, 1 month, -20°C Accuracy [%] (validation standard 2xLLOV): 103.7%; Long-term stability, 3 month, -20°C Accuracy [%] (validation standard 2xLLOV): 94.5%; Long-term stability, 3 month, -20°C Accuracy [%] (validation standard LLOV): 100.5%; Long-term stability, 3 month, -80°C Accuracy [%] (validation standard LLOV): 111.4%; Long-term stability, 6 weeks, 4°C, without daylight Accuracy [%] (validation standard LLOV): 71.1%; Long-term stability, 1 month, -20°C Accuracy [%] (validation standard MOV): 106.1%; Long-term stability, 3 month, -20°C Accuracy [%] (validation standard MOV): 94.0%; Long-term stability, 3 month, -20°C Accuracy [%] (validation standard ULOV): 90.5% |
| N#CC[C@H](C1CCCC1)n1cc(-c2ncnc3[nH]ccc23)cn1 [Ruxolitinib] | 93.0 | 97.7 | 100.0 | 99.4 | 93.8 | 95.6 | 94.6 | 98.6 | 99.8 | 94.2 | 97.7 | 96.8 | 94.6 | 97.6 | 95.3 | 91.6 | 95.3 | 95.8 | 94.5 | 96.6 | Long-term stability, 1 month, -20°C Accuracy [%] (validation standard 2xLLOV): 101.5%; Long-term stability, 3 month, -20°C Accuracy [%] (validation standard 2xLLOV): 97.5%; Long-term stability, 3 month, -20°C Accuracy [%] (validation standard LLOV): 101.8%; Long-term stability, 3 month, -80°C Accuracy [%] (validation standard LLOV): 96.5%; Long-term stability, 6 weeks, 4°C, without daylight Accuracy [%] (validation standard LLOV): 97.9%; Long-term stability, 1 month, -20°C Accuracy [%] (validation standard MOV): 95.8%; Long-term stability, 3 month, -20°C Accuracy [%] (validation standard MOV): 97.0%; Long-term stability, 3 month, -20°C Accuracy [%] (validation standard ULOV): 95.4% |
